{"source": "PubChem BioAssay AID686920", "about": "(Broad Institute, 2013)"}
{"tested_on": "A673 NR0B1-luciferase reporter, viability-normalised luminescence", "experiment": "NR0B1 reporter signal reduction in A673 cells – cell-based, luciferase luminescence, cherry-pick, EWS/Fli inhibitor project, dose response (AID 686920)", "units": {"AC35": "µM"}}
{"compound": "COc1ccc(-c2ccc3c(c2)[C@H]2[C@H](CCN2S(=O)(=O)c2ccc(OC)cc2)[C@@H](CO)N3C)cc1", "AC35": 4.45}
{"compound": "Oc1cccc(-c2nnc(-c3cccc(O)c3)nn2)c1", "AC35": 7.64}
{"compound": "CCc1ccc(/C=C2\\SC(=S)N(CCCC(=O)NC3=NCCS3)C2=O)cc1", "AC35": 0.588}
{"compound": "O=C(O)c1ccc(N/N=C/c2c(F)cccc2Cl)cc1", "AC35": 4.61}
{"compound": "CCCCNC(=O)C(c1ccc(OCC(=O)OC)c(C(=O)OC)c1)N(CCOC)C(=O)CCCCCN1C(=O)NC(c2ccc(-c3ccccc3)cc2)C(C(=O)OCc2ccccc2)=C1C", "note": "(stereo unspecified)", "AC35": 40.4}
{"compound": "CC(=O)ON=C1C=CC(=C(C#N)c2ccccc2)C=C1", "AC35": 13.3}
{"compound": "C[C@H](CO)N1C[C@H](C)[C@H](CN(C)Cc2ccc(C(F)(F)F)cc2)Oc2c(NS(=O)(=O)c3ccc(Cl)cc3)cccc2C1=O", "AC35": 43.4}
{"compound": "COc1ccc(N=C2C(=O)Nc3ccc(C)c(Br)c32)cc1", "AC35": 10}
{"compound": "Nc1nc(=S)c2ncn([C@@H]3O[C@H](CO)[C@@H](O)[C@H]3O)c2[nH]1", "AC35": 4.88}
{"compound": "Cc1ccc(C(=O)CN2C(=O)c3ccccc3S2(=O)=O)cc1", "AC35": 1.97}
{"compound": "Nc1ccc(Oc2ccccc2-c2ccccc2)cc1", "AC35": 2.49}
{"compound": "Cc1ccc(S(=O)(=O)Nc2ccc3c(c2)C(=O)N([C@@H](C)CO)C[C@H](C)[C@@H](CN(C)Cc2ccc(C(F)(F)F)cc2)OCCCC[C@@H](C)O3)cc1", "AC35": 10.2}
{"compound": "CCOc1ccc(OCc2ccc(C(=O)NN=Cc3ccc[nH]3)cc2)cc1", "AC35": 0.461}
{"compound": "Cc1cc2sc3ccc(C#CC4(O)CCCCC4)cc3c(=O)c2cc1C", "AC35": "< 0.03"}
{"compound": "Cc1c(-c2nc(-c3ccc(C(C)(C)C)cc3)no2)n(C)oc1=O", "AC35": 35.5}
{"compound": "Oc1[nH]c2ccc(Br)cc2c1N=NC(=S)N1CCOCC1", "AC35": 26.5}
{"compound": "O=C(N/N=C/c1cccs1)c1n[nH]c2c1CCCC2", "AC35": 4.03}
{"compound": "CCOc1cc(/C=N/Nc2cc(C)nc(-n3nc(C)cc3C)n2)ccc1O", "AC35": 35.8}
{"compound": "COc1cc(-c2coc3c(C(=O)NCc4ccc(C(F)(F)F)cc4)cccc23)ccc1O", "AC35": 2.21}
{"compound": "C=CC[n+]1c(-c2ccc(C)cc2)csc1Nc1ccc(NC(C)=O)cc1", "AC35": 15.6}
{"compound": "O=C(O)c1cccc(N/N=C/c2cccs2)c1", "AC35": 1.25}
{"compound": "CC(C)(C)c1ccc(/C=N/Nc2ccc(C(=O)O)cc2)cc1", "AC35": 2.22}
{"compound": "C=C1C(=O)OC2C1CCC(C)C1(O)C=CC(=O)C21C", "note": "(stereo unspecified)", "AC35": 11.5}
{"compound": "COc1ccc(OC)c(-c2nnc3n2N=C(c2ccc(OC)c(OC4CCOC4)c2)CS3)c1", "note": "(stereo unspecified)", "AC35": 6.56}
{"compound": "CC(C)CC#Cc1ccc([C@@H]2[C@@H](CO)N3CCCCN(S(=O)(=O)c4ccc(F)cc4)C[C@H]23)cc1", "AC35": 14.1}
{"compound": "O=C(Nc1nc(-c2ccc(F)c(F)c2)cs1)c1ccc(OCC2CCCO2)cc1", "note": "(stereo unspecified)", "AC35": 30}
{"compound": "C[C@@H]1CN([C@H](C)CO)S(=O)(=O)c2ccc(C#CC3CC3)cc2O[C@@H]1CN(C)Cc1ccccc1F", "AC35": 30.4}
{"compound": "CCOc1cc2[nH]c(=S)n(Cc3ccc(C(=O)NCCN(CC)CC)cc3)c(=O)c2cc1OCC", "AC35": 31.1}
{"compound": "O=c1c(Cl)cc(Cl)nn1-c1ccccc1", "AC35": 8.95}
{"compound": "Cc1ccccc1N=CC1=C(O)c2ccccc2C1=O", "AC35": 2.72}
{"compound": "C[C@@H]1CN([C@@H](C)CO)C(=O)Cc2cc(NS(=O)(=O)c3cccs3)ccc2O[C@H]1CN(C)Cc1ccc(Cl)c(Cl)c1", "AC35": 3.76}
{"compound": "COc1ccc([Si](C)(C)[C@H]2[C@H](CCO)O[C@@]3(C(=O)N(c4ccccc4)c4ccccc43)[C@@H]2C)cc1", "AC35": 7.79}
{"compound": "O=c1[nH]c(=O)n([C@H]2C[C@H](O)[C@@H](CO)O2)cc1C(F)(F)F", "AC35": 3.33}
{"compound": "O=C(O)c1cccc(N/N=C/c2ccc(OC(F)(F)F)cc2)c1", "AC35": 2.26}
{"compound": "O=c1ccc2ccccc2c2ccccc12", "AC35": 8.15}
{"compound": "Cc1ccsc1/C=N/Nc1cccc(C(=O)O)c1", "AC35": 0.832}
{"compound": "Nc1nc(N)c(-c2cccc(C(F)(F)F)c2)c(Cc2cccc(C(F)(F)F)c2)n1", "AC35": 2.54}
{"compound": "C(=N\\Nc1nc2ccccc2[nH]1)/c1ccccn1", "AC35": 5.58}
{"compound": "Cc1cc(-c2nc3ccccc3s2)ccc1N", "AC35": 7.98}
{"compound": "C[C@@H]1CN([C@@H](C)CO)C(=O)c2cccc(NS(=O)(=O)c3ccc(Cl)cc3)c2O[C@@H]1CN(C)Cc1ccc(C(=O)Nc2ccccc2N)cc1", "AC35": 5.31}
{"compound": "O=C1C(=O)N(CCS(=O)(=O)c2ccccc2)c2ccccc21", "AC35": 20.7}
{"compound": "Cc1c(CCOC(=O)CC23CC4CC(CC(C)(C4)C2)C3)sc[n+]1CC(=O)c1ccccc1", "AC35": 16.9}
{"compound": "COC(=O)C1=C(C)N(Cc2ccccc2C(F)(F)F)C(=NCc2ccc(OC)cc2)NC1c1ccc(C(F)(F)F)cc1", "note": "(stereo unspecified)", "AC35": 29.9}
{"compound": "COc1ccc(C2=Nn3c([n+](C)c4ccccc43)SC2)cc1", "AC35": 46.5}
{"compound": "O=C(Nc1ccccc1F)N1CCCCN2[C@H](CO)[C@H](c3ccc(/C=C/c4ccccc4)cc3)[C@H]2C1", "AC35": 14}
{"compound": "C[C@H](CO)N1C[C@H](C)[C@H](CN(C)Cc2ccc(Oc3ccccc3)cc2)Oc2ccc(NC(=O)CCCCCC(=O)Nc3ccccc3N)cc2CC1=O", "AC35": 4.15}
{"compound": "O=C1CCC2S/C(=C/Nc3ccc(C(F)(F)F)cc3)C(=O)N12", "note": "(stereo unspecified)", "AC35": 0.385}
{"compound": "Cc1nc2cc(-c3ccc(Cl)cc3)nn2c(C)c1CCC(=O)NC(C)c1ccc2c(c1)OCCO2", "note": "(stereo unspecified)", "AC35": 0.847}
{"compound": "CC(C)N1C/C(=C/c2ccsc2)C(=O)/C(=C/c2ccsc2)C1", "AC35": 5.52}
{"compound": "C[C@H]1CN([C@@H](C)CO)C(=O)c2cc(NS(=O)(=O)c3ccc(Cl)cc3)ccc2O[C@H]1CN(C)Cc1ccc(C(=O)Nc2ccccc2N)cc1", "AC35": 14.5}
{"compound": "CN(C)c1ccc(N=Nc2nc3ccccc3n2C)cc1", "AC35": 12.5}
{"compound": "Cc1ccc2nc(-c3ccccc3)nn2c1", "AC35": 4.49}
{"compound": "COC(=O)c1ccccc1-c1c2ccc(=N)cc-2oc2cc(N)ccc12", "AC35": 2.83}
{"compound": "C/C(=N\\Nc1cccc2cccnc12)c1ccccn1", "AC35": 19}
{"compound": "Cc1nc(N)nc(N)c1CCCc1ccc(Cl)c(Cl)c1", "AC35": 2.49}
{"compound": "C[C@H](CO)N1C[C@H](C)[C@H](CN(C)Cc2ccccc2)Oc2ccc(NC(=O)CCCCCC(=O)Nc3ccccc3N)cc2CC1=O", "AC35": 5.93}
{"compound": "CCOC(=O)Cc1ccc(NC(=O)c2ccccc2Br)cc1", "AC35": 4.18}
{"compound": "Nc1ccc(Oc2cccc(Oc3ccc(N)cc3)c2)cc1", "AC35": 1.15}
{"compound": "CC(C)(C)C(=O)Cn1ncc(Cl)c(Cl)c1=O", "AC35": 12.9}
{"compound": "O=C(C[C@@H]1CC[C@@H]2[C@H](COC[C@@H](O)CN2S(=O)(=O)c2ccc(F)cc2)O1)NCc1ccc(Cl)c(Cl)c1", "AC35": 61.8}
{"compound": "CCC1=Nc2cc(C(=O)NCC3CCCO3)ccc2Sc2ccc(Br)cc21", "note": "(stereo unspecified)", "AC35": 6.5}
{"compound": "CN(C)c1ccc(-c2ccnc3c2CC(C)(C(=O)NCc2ccco2)O3)cc1", "note": "(stereo unspecified)", "AC35": 6.85}
{"compound": "COc1ccc(C(CCNCc2ccc(OC(C)C)cc2)C(C)C)cc1", "note": "(stereo unspecified)", "AC35": 15.2}
{"compound": "C[C@H]1O[C@@H](O[C@H]2[C@@H](O)C[C@H](O[C@H]3[C@@H](O)C[C@H](O[C@H]4CC[C@@]5(C)[C@H](CC[C@@H]6[C@@H]5C[C@@H](O)[C@]5(C)[C@@H](C7=CC(=O)OC7)CC[C@]65O)C4)O[C@@H]3C)O[C@@H]2C)C[C@H](O)[C@@H]1O", "AC35": 0.0886}
{"compound": "CCCNC(=O)N1[C@H](C#N)[C@H](c2ccc(C#Cc3ccc(F)cc3)cc2)[C@H]1CO", "AC35": 10.1}
{"compound": "CC(=O)OC1CC2(O)C3CCC4CC(O)CCC4(C)C3CCC2(C)C1C1=CC(=O)OC1", "note": "(stereo unspecified)", "AC35": 0.231}
{"compound": "CN=c1scc(-c2cccs2)n1/N=C/c1ccccc1O", "AC35": 0.298}
{"compound": "COc1ccccc1N(/N=C1\\Sc2ccccc2C1=O)C(C)=O", "AC35": 23.6}
{"compound": "COC(=O)C[C@@H]1CC[C@@H]2[C@H](COc3ccc(NC(=O)c4ccc(F)c(F)c4)cc3C(=O)N2C)O1", "AC35": 64.7}
{"compound": "COc1ccc(/C=C2/SC(=S)N(CCCC(=O)Nc3ccccc3C(=O)O)C2=O)cc1", "AC35": 5.83}
{"compound": "Cc1ccc(/C=C/C(=O)N2CCN(S(=O)(=O)c3c(C)c(C)cc(C)c3C)CC2)o1", "AC35": 49}
{"compound": "CC(C)c1ccc(OCc2cccc(C(=O)N/N=C/c3cccnc3)c2)cc1", "AC35": 1.03}
{"compound": "O=C1NC(=O)N(c2ccccc2)C(=O)/C1=C\\C=C\\c1ccccc1", "AC35": 8.31}
{"compound": "O=c1[nH]c(/C=C2\\C=Nc3ccccc32)c(O)n1Cc1ccccc1F", "AC35": 4.21}
{"compound": "CC(=NNc1ccc2ccccc2n1)c1ccccc1O", "AC35": 5.09}
{"compound": "O=C(Nc1ccc(Br)cc1)c1ccc(F)c(S(=O)(=O)N2CCN(c3ccccn3)CC2)c1", "AC35": 7.79}
{"compound": "C[C@H]1CCCCO[C@H](CN(C)Cc2ccc(C(F)(F)F)cc2)[C@@H](C)CN([C@@H](C)CO)C(=O)c2cc(NC(=O)Nc3ccccc3)ccc2O1", "AC35": 19.4}
{"compound": "COCCCNc1ccn2nc(-c3ccccc3)cc2n1", "AC35": 10.1}
{"compound": "CC(=O)c1ccc(N=C2C(=O)Nc3ccccc32)cc1", "AC35": 19.3}
{"compound": "C[C@H](CO)N1C[C@H](C)[C@H](CN(C)Cc2ccc(C(=O)Nc3ccccc3N)cc2)Oc2ccc(NS(=O)(=O)c3cccs3)cc2C1=O", "AC35": 11.6}
{"compound": "CCCCc1c(Cc2ccccc2)ncn1CCc1ccccc1OC", "AC35": 20.8}
{"compound": "Cc1ccc(S(=O)(=O)Nc2ccc3c(c2)C(=O)N([C@@H](C)CO)C[C@@H](C)[C@@H](CN(C)Cc2ccc(C(=O)Nc4ccccc4N)cc2)O3)cc1", "AC35": 6.44}
{"compound": "O=c1c2ccccc2oc2ccc(C#CC3(O)CCCCC3)cc12", "AC35": 14.1}
{"compound": "N#CC1=C(N)Oc2cc(N)ccc2C1c1cccc(Br)c1", "note": "(stereo unspecified)", "AC35": 0.542}
{"compound": "O=C(CCCN1C(=O)/C(=C/c2ccccc2Cl)SC1=S)NNC(=O)c1ccc(Cl)cc1Cl", "AC35": 3.4}
{"compound": "CCc1ccc(/C=C2\\SC(=S)N(CCC(=O)Nc3cc(C)on3)C2=O)cc1", "AC35": 6.38}
{"compound": "N#C[C@H]1N[C@H](CO)[C@H]1c1ccc(C#Cc2ccc(F)cc2)cc1", "AC35": 0.123}
{"compound": "COc1cccc(CN2CCC2(C)C(=O)Nc2cccc3cccnc23)c1F", "note": "(stereo unspecified)", "AC35": 14.7}
{"compound": "C[C@@H]1O[C@@H](O[C@H]2C[C@@H](O)[C@]3(CO)[C@@H]4C(CC[C@]3(O)C2)[C@@]2(O)CC[C@H](C3COC(=O)C3)[C@@]2(C)C[C@H]4O)[C@H](O)[C@H](O)[C@H]1O", "note": "(stereo partly specified)", "AC35": 1.97}
{"compound": "COc1ccc(CNc2ncc(-c3ccc(F)cc3)n2C)c2ccccc12", "AC35": 6.93}
{"compound": "C=C1C(=O)O[C@@H]2[C@H]1[C@@H](OC(=O)/C(C)=C/C)C/C(C)=C\\C(=O)/C=C(\\C)[C@@H]2O", "AC35": 8.09}
{"compound": "O=C(CN1C(=O)c2ccccc2S1(=O)=O)c1ccc(F)cc1", "AC35": 3.98}
{"compound": "CN=c1scc(-c2ccccc2F)n1/N=C/c1ccc(O)c(O)c1O", "AC35": 15.7}
{"compound": "C=C(C(=O)c1ccccc1)C(C)C(=C)C(=O)c1ccccc1", "AC35": 5.4}
{"compound": "CCc1ccc(/C=C2\\SC(=S)N(CCCC(=O)NCCCN3CCOCC3)C2=O)cc1", "AC35": 1.98}
{"compound": "C[C@@H]1CCCCO[C@H](CN(C)Cc2ccc(C(=O)Nc3ccccc3N)cc2)[C@@H](C)CN([C@H](C)CO)C(=O)c2cc(NS(=O)(=O)c3ccc(F)cc3)ccc2O1", "AC35": 5.53}
